The values below come from US9932381B2, “Exendin-4 derivatives as selective glucagon receptor agonists” (priority 2014, dated 2018).

A short description of data set [1]: Solubility testing of exendin-4 derivatives (HPLC-UV of supernatant). Type of data set: physicochemical. The following applies: pH 7.4. How it is done: Prior to the testing of solubility and stability of a peptide batch, its content was determined. Therefore, two parameters were investigated, its purity (HPLC-UV) and the amount of salt load of the batch (ion chromatography).
HPLC-UV was performed after 2 h of gentle agitation from the supernatant, which was obtained by 20 min of centrifugation at 4000 rpm.

For data set [2], the target named is T1, human GLP-1 receptor (hGLP-1 R) (Homo sapiens, UniProt P43220).
T1 construct: expressed in transfected cells; host or cells: HEK-293
Put plainly: cAMP response (HTRF) of HEK-293 cells stably expressing human GLP-1 receptor. Type of data set: cell-based. The following applies: Table 4. How it is done:
(§1) cAMP content of cells was determined using a kit from Cisbio Corp. (cat. no. 62AM4PEC) based on HTRF (Homogenous Time Resolved Fluorescence). For preparation, cells were split into T175 culture flasks and grown overnight to near confluency in medium (DMEM/10% FBS). Medium was then removed and cells washed with PBS lacking calcium and magnesium, followed by proteinase treatment with accutase (Sigma-Aldrich cat. no. A6964). Detached cells were washed and resuspended in assay buffer (1×HBSS; 20 mM HEPES, 0.1% BSA, 2 mM IBMX) and cellular density determined. They were then diluted to 400000 cells/ml and 25 μl-aliquots dispensed into the wells of 96-well plates. For measurement, 25 μl of test compound in assay buffer was added to the wells, followed by incubation for 30 minutes at room temperature. After addition of HTRF reagents diluted in lysis buffer (kit components), the plates were incubated for 1 hr, followed by measurement of the fluorescence ratio at 665/620 nm. In vitro potency of agonists was quantified by determining the concentrations that caused 50% activation of maximal response (EC50).
(In general: In TR-FRET formats the signal depends on donor and acceptor labels being close together.)

In data set [3] the target is T2, human glucagon receptor (hGLUC R) (Homo sapiens, UniProt P47871).
T2 construct: expressed in transfected cells; host or cells: HEK-293
Put plainly: cAMP response (HTRF) of HEK-293 cells stably expressing human glucagon receptor. Type of data set: cell-based. Particulars: Table 4; read-out: EC50 hGLUC R. How it is done:
as §1, with “temperature.” for “temperature. After addition of HTRF reagents diluted in lysis buffer (kit components), the plates were incubated for 1 hr, followed by measurement of the fluorescence ratio at 665/620 nm. In vitro potency of agonists was quantified by determining the concentrations that caused 50% activation of maximal response (EC50).”

Non-standard residues stand in square brackets, D forms with d. Residues, ends and D or L forms follow the SMILES beside them. Ala(4-thiazolyl) = N[C@@H](Cc1cscn1)C(=O)O; Chg = N[C@H](C(=O)O)C1CCCCC1; Tle = CC(C)(C)[C@H](N)C(=O)O; Nle = CCCC[C@H](N)C(=O)O A value given as a limit tells only on which side of the number the result lay.

T2 sequence (P47871 26-477): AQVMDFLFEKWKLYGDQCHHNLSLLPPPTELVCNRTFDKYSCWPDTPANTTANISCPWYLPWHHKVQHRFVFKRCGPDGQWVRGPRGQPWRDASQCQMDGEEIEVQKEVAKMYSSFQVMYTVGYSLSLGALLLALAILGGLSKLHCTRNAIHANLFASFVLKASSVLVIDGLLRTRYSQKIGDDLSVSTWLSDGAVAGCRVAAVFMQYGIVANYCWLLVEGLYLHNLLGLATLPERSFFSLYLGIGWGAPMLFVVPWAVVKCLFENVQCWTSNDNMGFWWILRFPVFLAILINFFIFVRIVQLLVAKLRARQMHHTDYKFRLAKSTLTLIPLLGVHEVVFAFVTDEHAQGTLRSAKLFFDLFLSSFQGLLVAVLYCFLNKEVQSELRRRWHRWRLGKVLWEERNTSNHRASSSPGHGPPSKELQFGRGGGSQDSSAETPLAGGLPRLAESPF
T1 sequence (P43220 24-463): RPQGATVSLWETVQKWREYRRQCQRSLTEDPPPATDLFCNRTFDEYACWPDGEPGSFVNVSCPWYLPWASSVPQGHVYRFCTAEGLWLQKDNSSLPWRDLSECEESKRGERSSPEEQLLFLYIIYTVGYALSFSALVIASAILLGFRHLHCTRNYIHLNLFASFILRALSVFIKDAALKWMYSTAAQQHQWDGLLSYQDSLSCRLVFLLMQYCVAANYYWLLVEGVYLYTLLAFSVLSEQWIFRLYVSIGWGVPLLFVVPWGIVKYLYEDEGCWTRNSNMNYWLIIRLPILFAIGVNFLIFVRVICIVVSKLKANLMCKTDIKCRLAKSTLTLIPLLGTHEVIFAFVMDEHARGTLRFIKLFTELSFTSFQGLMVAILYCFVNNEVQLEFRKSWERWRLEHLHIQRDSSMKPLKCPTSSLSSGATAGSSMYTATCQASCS

As usually defined, the solubility is how much of the substance goes into solution per volume. Take `CC[C@H](C)[C@H](NC(=O)[C@H](Cc1ccccc1)NC(=O)[C@H](CC(=O)O)NC(=O)[C@H](CCC(N)=O)NC(=O)[C@H](C)NC(=O)[C@H](CCCNC(=N)N)NC(=O)[C@H](CCCNC(=N)N)NC(=O)[C@H](CO)NC(=O)[C@H](CCC(=O)O)NC(=O)[C@H](CC(C)C)NC(=O)[C@H](CCC(N)=O)NC(=O)[C@H](CCCCN)NC(=O)[C@H](CO)NC(=O)[C@@H](NC(=O)[C@H](CC(=O)O)NC(=O)[C@H](CO)NC(=O)[C@@H](NC(=O)[C@H](Cc1ccccc1)NC(=O)[C@@H](NC(=O)CNC(=O)[C@H](CCC(N)=O)NC(=O)[C@H](CO)NC(=O)[C@@H](N)Cc1cscn1)[C@@H](C)O)[C@@H](C)O)C1CCCCC1)C(=O)N[C@@H](CCC(=O)O)C(=O)N[C@@H](Cc1c[nH]c2ccccc12)C(=O)N[C@@H](CC(C)C)C(=O)N[C@@H](CC(C)C)C(=O)N[C@@H](C)C(=O)N[C@H](C(=O)NCC(=O)N1CCC[C@H]1C(=O)N[C@@H](CCC(=O)O)C(=O)N[C@@H](CO)C(=O)NCC(=O)N[C@@H](C)C(=O)N1CCC[C@H]1C(=O)N1CCC[C@H]1C(=O)N1CCC[C@H]1C(=O)N[C@@H](CO)C(=O)O)[C@@H](C)O` [SEQ ID NO 23, Tza-S-Q-G-T-F-T-S-D-Chg-SKQLESRRAQDFIEWLLATGPESGAPPPS-OH] (H-[Ala(4-thiazolyl)]SQGTFTSD[Chg]SKQLESRRAQDFIEWLLATGPESGAPPPS-OH; N-terminus assumed): the solubility at 2 h in data set [1] was more than 10000 µg/mL.

With `CCCC[C@H](NC(=O)[C@H](CCC(N)=O)NC(=O)[C@H](CCCCN)NC(=O)[C@H](CO)NC(=O)[C@@H](NC(=O)[C@H](CC(=O)O)NC(=O)[C@H](CO)NC(=O)[C@@H](NC(=O)[C@H](Cc1ccccc1)NC(=O)[C@@H](NC(=O)CNC(=O)[C@H](CCC(N)=O)NC(=O)[C@H](CO)NC(=O)[C@@H](N)Cc1cscn1)[C@@H](C)O)[C@@H](C)O)C(C)(C)C)C(=O)N[C@@H](CCC(=O)O)C(=O)N[C@@H](CO)C(=O)N[C@@H](CCCNC(=N)N)C(=O)N[C@@H](CCCNC(=N)N)C(=O)N[C@@H](C)C(=O)N[C@@H](CCC(N)=O)C(=O)N[C@@H](CCC(=O)O)C(=O)N[C@@H](Cc1ccccc1)C(=O)N[C@H](C(=O)N[C@@H](CCC(=O)O)C(=O)N[C@@H](Cc1c[nH]c2ccccc12)C(=O)N[C@@H](CC(C)C)C(=O)N[C@@H](CC(C)C)C(=O)N[C@@H](C)C(=O)N[C@H](C(=O)NCC(=O)N1CCC[C@H]1C(=O)N[C@@H](CCC(=O)O)C(=O)N[C@@H](CO)C(=O)NCC(=O)N[C@@H](C)C(=O)N1CCC[C@H]1C(=O)N1CCC[C@H]1C(=O)N1CCC[C@H]1C(=O)N[C@@H](CO)C(=O)O)[C@@H](C)O)[C@@H](C)CC` [SEQ ID NO 25, Tza-S-Q-G-T-F-T-S-D-Tle-S-K-Q-Nle-ESRRAQEFIEWLLATGPESGAPPPS-OH] (H-[Ala(4-thiazolyl)]SQGTFTSD[Tle]SKQ[Nle]ESRRAQEFIEWLLATGPESGAPPPS-OH; N-terminus assumed), the solubility at 2 h in data set [1] is more than 10000 µg/mL.

As usually defined, the EC50 is the concentration giving half of the maximal effect. For `CC[C@H](C)[C@H](NC(=O)[C@H](Cc1ccccc1)NC(=O)[C@H](CCC(=O)O)NC(=O)[C@H](CCC(N)=O)NC(=O)[C@H](C)NC(=O)[C@H](CCCNC(=N)N)NC(=O)[C@H](CCCNC(=N)N)NC(=O)[C@H](CO)NC(=O)[C@H](CCC(=O)O)NC(=O)[C@H](CC(C)C)NC(=O)[C@H](CCC(N)=O)NC(=O)[C@H](CCCCN)NC(=O)[C@H](CO)NC(=O)[C@H](CC(C)C)NC(=O)[C@H](CC(=O)O)NC(=O)[C@H](CO)NC(=O)[C@@H](NC(=O)[C@H](Cc1ccccc1)NC(=O)[C@@H](NC(=O)CNC(=O)[C@H](CCC(N)=O)NC(=O)[C@H](CO)NC(=O)[C@@H](N)Cc1cscn1)[C@@H](C)O)[C@@H](C)O)C(=O)N[C@@H](CCC(=O)O)C(=O)N[C@@H](Cc1c[nH]c2ccccc12)C(=O)N[C@@H](CC(C)C)C(=O)N[C@@H](CC(C)C)C(=O)N[C@@H](C)C(=O)N[C@H](C(=O)NCC(=O)N1CCC[C@H]1C(=O)N[C@@H](CCC(=O)O)C(=O)N[C@@H](CO)C(=O)NCC(=O)N[C@@H](C)C(=O)N1CCC[C@H]1C(=O)N1CCC[C@H]1C(=O)N1CCC[C@H]1C(=O)N[C@@H](CO)C(=O)O)[C@@H](C)O` [SEQ ID NO 12, Tza-SQGTFTSDLSKQLESRRAQEFIEWLLATGPESGAPPPS-OH] (H-[Ala(4-thiazolyl)]SQGTFTSDLSKQLESRRAQEFIEWLLATGPESGAPPPS-OH), the EC50 is 20000 pM in data set [2] and 1 pM in data set [3].

Consider `CCCC[C@H](NC(=O)[C@H](CCC(N)=O)NC(=O)[C@H](CCCCN)NC(=O)[C@H](CO)NC(=O)[C@@H](NC(=O)[C@H](CC(=O)O)NC(=O)[C@H](CO)NC(=O)[C@@H](NC(=O)[C@H](Cc1ccccc1)NC(=O)[C@@H](NC(=O)CNC(=O)[C@H](CCC(N)=O)NC(=O)[C@H](CO)NC(=O)[C@@H](N)Cc1cscn1)[C@@H](C)O)[C@@H](C)O)C1CCCCC1)C(=O)N[C@@H](CCC(=O)O)C(=O)N[C@@H](CO)C(=O)N[C@@H](CCCNC(=N)N)C(=O)N[C@@H](CCCNC(=N)N)C(=O)N[C@@H](C)C(=O)N[C@@H](CCC(N)=O)C(=O)N[C@@H](CCC(=O)O)C(=O)N[C@@H](Cc1ccccc1)C(=O)N[C@H](C(=O)N[C@@H](CCC(=O)O)C(=O)N[C@@H](Cc1c[nH]c2ccccc12)C(=O)N[C@@H](CC(C)C)C(=O)N[C@@H](CC(C)C)C(=O)N[C@@H](C)C(=O)N[C@H](C(=O)NCC(=O)N1CCC[C@H]1C(=O)N[C@@H](CCC(=O)O)C(=O)N[C@@H](CO)C(=O)NCC(=O)N[C@@H](C)C(=O)N1CCC[C@H]1C(=O)N1CCC[C@H]1C(=O)N1CCC[C@H]1C(=O)N[C@@H](CO)C(=O)O)[C@@H](C)O)[C@@H](C)CC` [SEQ ID NO 24, Tza-S-Q-G-T-F-T-S-D-Chg-S-K-Q-Nle-ESRRAQEFIEWLLATGPESGAPPPS-OH] (H-[Ala(4-thiazolyl)]SQGTFTSD[Chg]SKQ[Nle]ESRRAQEFIEWLLATGPESGAPPPS-OH), for which, in data set [1], the solubility at 2 h is more than 10000 µg/mL.

For the compound `CC[C@H](C)[C@H](NC(=O)[C@H](Cc1ccccc1)NC(=O)[C@H](CCC(=O)O)NC(=O)[C@H](CCC(N)=O)NC(=O)[C@H](C)NC(=O)[C@H](CCCNC(=N)N)NC(=O)[C@H](CCCNC(=N)N)NC(=O)[C@H](CO)NC(=O)[C@H](CCC(=O)O)NC(=O)[C@H](CC(C)C)NC(=O)[C@H](CCC(N)=O)NC(=O)[C@H](CCCCN)NC(=O)[C@H](CO)NC(=O)[C@@H](NC(=O)[C@H](CC(=O)O)NC(=O)[C@H](CO)NC(=O)[C@@H](NC(=O)[C@H](Cc1ccccc1)NC(=O)[C@@H](NC(=O)CNC(=O)[C@H](CCC(N)=O)NC(=O)[C@H](CO)NC(=O)[C@@H](N)Cc1cscn1)[C@@H](C)O)[C@@H](C)O)C(C)C)C(=O)N[C@@H](CCC(=O)O)C(=O)N[C@@H](Cc1c[nH]c2ccccc12)C(=O)N[C@@H](CC(C)C)C(=O)N[C@@H](CC(C)C)C(=O)N[C@@H](C)C(=O)NCC(=O)NCC(=O)N1CCC[C@H]1C(=O)N[C@@H](CCC(=O)O)C(=O)N[C@@H](CO)C(=O)NCC(=O)N[C@@H](C)C(=O)N1CCC[C@H]1C(=O)N1CCC[C@H]1C(=O)N1CCC[C@H]1C(=O)N[C@@H](CO)C(=O)O` [SEQ ID NO 9, Tza-SQGTFTSDVSKQLESRRAQEFIEWLLAGGPESGAPPPS-OH] (H-[Ala(4-thiazolyl)]SQGTFTSDVSKQLESRRAQEFIEWLLAGGPESGAPPPS-OH), in data set [1], the solubility at 2 h is more than 10000 µg/mL. For the same compound, the EC50 in data set [3] amounted to 2.2 pM.

For `CCCC[C@H](NC(=O)[C@H](CCC(N)=O)NC(=O)[C@H](CCCCN)NC(=O)[C@H](CO)NC(=O)[C@@H](NC(=O)[C@H](CC(=O)O)NC(=O)[C@H](CO)NC(=O)[C@@H](NC(=O)[C@H](Cc1ccccc1)NC(=O)[C@@H](NC(=O)CNC(=O)[C@H](CCC(N)=O)NC(=O)[C@H](CO)NC(=O)[C@@H](N)Cc1cscn1)[C@@H](C)O)[C@@H](C)O)C1CCCCC1)C(=O)N[C@@H](CCC(=O)O)C(=O)N[C@@H](CO)C(=O)N[C@@H](CCCNC(=N)N)C(=O)N[C@@H](CCCNC(=N)N)C(=O)N[C@@H](C)C(=O)N[C@@H](CCC(N)=O)C(=O)N[C@@H](CC(=O)O)C(=O)N[C@@H](Cc1ccccc1)C(=O)N[C@H](C(=O)N[C@@H](CCC(=O)O)C(=O)N[C@@H](Cc1c[nH]c2ccccc12)C(=O)N[C@@H](CC(C)C)C(=O)N[C@@H](CC(C)C)C(=O)N[C@@H](C)C(=O)N[C@H](C(=O)NCC(=O)N1CCC[C@H]1C(=O)N[C@@H](CCC(=O)O)C(=O)N[C@@H](CO)C(=O)NCC(=O)N[C@@H](C)C(=O)N1CCC[C@H]1C(=O)N1CCC[C@H]1C(=O)N1CCC[C@H]1C(=O)N[C@@H](CO)C(=O)O)[C@@H](C)O)[C@@H](C)CC` [SEQ ID NO 20, Tza-S-Q-G-T-F-T-S-D-Chg-S-K-Q-Nle-ESRRAQDFIEWLLATGPESGAPPPS-OH] (H-[Ala(4-thiazolyl)]SQGTFTSD[Chg]SKQ[Nle]ESRRAQDFIEWLLATGPESGAPPPS-OH; N-terminus assumed), in data set [1] (2 h), the “Solubility (pH7.4) [mg/ml]” value was more than 10.0 mg/ml.
